Patent US6570068B1, “Methods for maize transformation coupled with adventitious regeneration utilizing nodal section explants and mature zygotic embryos” (Mississippi State University, priority 1997, dated 2003)

How the values were obtained:
nodal ridge explants = test: Multiple shoot clump formation from nodal ridge explants of seedlings germinated with BA; format: cell-based, corn; conditions: 2.0 mg/l BA in germination medium, 4 weeks on shoot initiation medium
Method: (§1) In this experiment, the standard germination medium contained 4.3 g/l MS basal salts, DM-Vitamins (1.0 mg/l thiamine-HCl, 0.5 mg/l pyridoxine-HCl, 0.5 mg/l nicotinic acid, 100 mg/l myo-inositol), 30 g/l sucrose, (pH 5.8), and 2.0 mg/l benzyladenine (BA). The standard shoot initiation medium contained 4.3 g/l MS basal salts, DM-vitamins (1.0 mg/l thiamine-HCl, 0.5 mg/l pyridoxine-HCl, 0.5 mg/l nicotinic acid, 100 mg/l myo-inositol), 30 g/l sucrose, 8.0 g/l Phytagar, 0.25 mg/l 4-CPA (para-chlorophenoxyacetic acid), 10 mg/l glycine, 150 mg/l asparagine, and 2.0 mg/l BA. The standard root initiation medium contained 4.3 g/l MS basal salts, DM-vitamins (1.0 mg/l thiamine-HCl, 0.5 mg/l pyridoxine-HCl, 0.5 mg/l nicotinic acid, 100 mg/l myo-inositol), 30 g/l sucrose, 8.0 g/l Phytagar, and ±0.5 mg/l IBA.
As a result, those explants were easier to excise. Explants spanning the seventh node (nodal ridge),with a top excision of 0.5-1.0 mm above the ridge were excised from 4, 7, 14 or 21 day-old seedlings and placed on the shoot initiation medium for 4 weeks. After 4 weeks, 45% of the explants from 7 day-old seedlings (+BA) produced multiple shoot clumps, whereas only 24% of 7 day-old seedlings (−BA) produced multiple shoot clumps. Approximately 3% of the 4 day-old seedlings (+BA) produced multiple shoots. […]

corn seedlings = test: Seedling growth in germination medium with BA; format: in vivo; conditions: for seedling height versus seedlings without BA: 2.0 mg/l BA in germination medium
Method: as §1
As a result, those explants were easier to excise. Explants spanning the seventh node (nodal ridge),with a top excision of 0.5-1.0 mm above the ridge were excised from 4, 7, 14 or 21 day-old seedlings and placed on the shoot initiation medium for 4 weeks. After 4 weeks, 45% of the explants from 7 day-old seedlings (+BA) produced multiple shoot clumps, whereas only 24% of 7 day-old seedlings (−BA) produced multiple shoot clumps. Approximately 3% of the 4 day-old seedlings (+BA) produced multiple shoots. Most explants from older seedlings (14 or 21 days) produced only one elongated shoot or 1 shoot with multiple branches. Once placed on the standard root initiation medium, most shoots (85%) rooted and the plants produced were acclimatized and placed under greenhouse conditions where normal flowering and fruiting were observed. Only one out of 29 plants produced was abnormal (i.e., a dwarf with twisted leaves). The explants should remain on the shoot initiation medium for 4 weeks. It was discovered that if the explants are left on the shoot initiation medium for 8 weeks, floral structures appeared.

Structure (SMILES): c1ccc(CNc2ncnc3nc[nH]c23)cc1 [BA, benzyladenine]
- seedlings (explants) that produced multiple shoots (nodal ridge explants; 4 day-old seedlings): Approximately 3%
- explants that produced multiple shoot clumps (nodal ridge explants; explants from 7 day-old seedlings): 45%
- seedling height versus seedlings without BA (corn seedlings; 4 day-old seedlings): taller than those without BA
- seedling height versus seedlings without BA (corn seedlings; by 7 days): no appreciable differences in height
- roots at the nodal ridge (corn seedlings; seedlings grown with BA): less roots at the nodal ridge
